Like-named read-outs stand apart in the source and are kept apart here.
Legend:
Format in all cases: in vivo, mice
[1] = system: H-Meso-1 tumors; details: G4 pemetrexed 100 mg/kg/day IP
Protocol: (§1) Female athymic nude mice (Harlan Sprague Dawley, Madison, Wis.) were utilized for all experiments. Animals were housed in ventilated rack caging with food and water ad libitum. The mice were acclimated for at least 5 days prior to tumor implantation.
The tumor model used in this study was H-Meso-1 cell line which is a human mesothelioma cell line obtained from the DTP, DCTD tumor repository. […] Cells were implanted SC into study mice using a 1 ml syringe with a 13G trocar: 5×10^6 cells/mouse in 0.2 ml 50% Matrigel/50% RPMI medium of H-Meso-1 without serum or antibiotics. Bacterial culture was taken on cells used to implant the study.
Treatments were initiated on DPI 6.
(§2) Tumor size measurements were recorded 2-3 times/week from the treatment initiation until the termination of the study.
(§3) Mean, standard deviation and standard error of the mean were determined for tumor volume for all animal groups at all assessments. Student's t test was performed on tumor volumes at each measurement day, including at the end of the study, to determine whether there were any statistically significant differences between combination treatment groups and single monotherapy treatment groups.

[2] = system: CaLu-6 tumors
Description: as §1
The tumor model used in this study was CaLu-6 cell line which is a human lung cell line obtained from the ATCC (Manassas, Va.). […] Cells from in vitro passage 10 were those implanted SC into study mice.
Treatments were initiated on DPI 9.
as §2, §3

[3] = system: NCI-H460 tumors
Description: as §1
The tumor model used in this study was NCI-H460 cell line which is a human lung cell line obtained from the ATCC (Manassas, Va.). […] Cells from in vitro passage 16 were those implanted SC into study mice.
Treatments were initiated on DPI 8.
as §2, §3

[4] = day 13, G3 pemetrexed 125 mg/kg/day IP
[5] = day 13, G4 pemetrexed 100 mg/kg/day IP
[6] = day 16, G3 pemetrexed 125 mg/kg/day IP
[7] = day 16, G4 pemetrexed 100 mg/kg/day IP
[8] = day 20, G3 pemetrexed 125 mg/kg/day IP
[9] = day 20, G4 pemetrexed 100 mg/kg/day IP
[10] = day 23, G3 pemetrexed 125 mg/kg/day IP
[11] = day 23, G4 pemetrexed 100 mg/kg/day IP

## Nc1nc2[nH]cc(CCc3ccc(C(=O)N[C@@H](CCC(=O)O)C(=O)O)cc3)c2c(=O)[nH]1 [pemetrexed]
[1]
  % T/C on day 6: 102.1%
  % T/C on day 7: 100.2%
  % T/C on day 9: 109.0%
  % T/C on day 12: 105.7%
  % T/C on day 14: 124.2%
  % T/C on day 16: 128.6%
  % T/C on day 19: 110.4%
  % T/C on day 22: 100.8%
  % T/C on day 26: 122.9%
[1]; day 6
  % Inhibition: −2.1%
[1]; day 7
  % Inhibition: −0.2%
[1]; day 9
  % Inhibition: −9.0%
[1]; day 12
  % Inhibition: −5.7%
[1]; day 14
  % Inhibition: −24.2%
[1]; day 16
  % Inhibition: −28.6%
[1]; day 19
  % Inhibition: −10.4%
[1]; day 22
  % Inhibition: −0.8%
[1]; day 26
  % Inhibition: −22.9%
[1]; day 29
  % Inhibition: −22.4%
[2]; G3 pemetrexed 125 mg/kg/day IP
  % T/C on day 9: 99.6%
  % T/C on day 16: 86.6%
  % T/C on day 20: 104.8%
  % T/C on day 23: 98.7%
  % T/C on day 27: 87.9%
  % T/C on day 30: 90.0%
  % T/C on day 34: 89.1%
  % T/C on day 42: 94.2%
[2]; G4 pemetrexed 100 mg/kg/day IP
  % T/C on day 9: 103.4%
  % T/C on day 13: 126.5%
  % T/C on day 16: 103.5%
  % T/C on day 20: 120.6%
  % T/C on day 23: 111.5%
  % T/C on day 27: 101.8%
  % T/C on day 30: 105.8%
  % T/C on day 34: 102.2%
  % T/C on day 42: 100.5%
[2]; day 9, G3 pemetrexed 125 mg/kg/day IP
  % Inhibition: 0.4%
[2]; day 9, G4 pemetrexed 100 mg/kg/day IP
  % Inhibition: −3.4%
[2]; [4]
  % Inhibition: −16.6%
[2]; [5]
  % Inhibition: −26.5%
[2]; [6]
  % Inhibition: 13.4%
[2]; [7]
  % Inhibition: −3.5%
[2]; [8]
  % Inhibition: −4.8%
[2]; [9]
  % Inhibition: −20.6%
[2]; [10]
  % Inhibition: 1.3%
[2]; [11]
  % Inhibition: −11.5%
[2]; day 27, G3 pemetrexed 125 mg/kg/day IP
  % Inhibition: 12.1%
[2]; day 27, G4 pemetrexed 100 mg/kg/day IP
  % Inhibition: −1.8%
[2]; day 30, G3 pemetrexed 125 mg/kg/day IP
  % Inhibition: 10.0%
[2]; day 30, G4 pemetrexed 100 mg/kg/day IP
  % Inhibition: −5.8%
[2]; day 34, G3 pemetrexed 125 mg/kg/day IP
  % Inhibition: 10.9%
[2]; day 34, G4 pemetrexed 100 mg/kg/day IP
  % Inhibition: −2.2%
[2]; day 42, G3 pemetrexed 125 mg/kg/day IP
  % Inhibition: 5.8%
[2]; day 42, G4 pemetrexed 100 mg/kg/day IP
  % Inhibition: −0.5%
[3]; G3 pemetrexed 125 mg/kg/day IP
  % T/C on day 8: 102.6%
  % T/C on day 10: 119.0%
  % T/C on day 13: 67.5%
  % T/C on day 16: 71.0%
  % T/C on day 20: 70.4%
  % T/C on day 23: 85.4%
  % T/C on day 28: 72.9%
  % T/C on day 31: 82.6%
[3]; G4 pemetrexed 100 mg/kg/day IP
  % T/C on day 8: 103.0%
  % T/C on day 10: 107.3%
  % T/C on day 13: 75.7%
  % T/C on day 16: 72.4%
  % T/C on day 20: 72.9%
  % T/C on day 23: 86.3%
  % T/C on day 28: 76.8%
  % T/C on day 31: 96.9%
[3]; day 8, G3 pemetrexed 125 mg/kg/day IP
  % Inhibition: −2.6%
[3]; day 8, G4 pemetrexed 100 mg/kg/day IP
  % Inhibition: −3.0%
[3]; day 10, G3 pemetrexed 125 mg/kg/day IP
  % Inhibition: −19.0%
[3]; day 10, G4 pemetrexed 100 mg/kg/day IP
  % Inhibition: −7.3%
[3]; [4]
  % Inhibition: 32.5%
[3]; [5]
  % Inhibition: 24.3%
[3]; [6]
  % Inhibition: 29.0%
[3]; [7]
  % Inhibition: 27.6%
[3]; [8]
  % Inhibition: 29.6%
[3]; [9]
  % Inhibition: 27.1%
[3]; [10]
  % Inhibition: 14.6%
[3]; [11]
  % Inhibition: 13.7%
[3]; day 28, G3 pemetrexed 125 mg/kg/day IP
  % Inhibition: 27.1%
[3]; day 28, G4 pemetrexed 100 mg/kg/day IP
  % Inhibition: 23.2%
[3]; day 31, G3 pemetrexed 125 mg/kg/day IP
  % Inhibition: 17.4%
[3]; day 31, G4 pemetrexed 100 mg/kg/day IP
  % Inhibition: 3.1%

Source: patent publication US20110070232A1, “Combination Therapy with an Antitumor Alkaloid” (Pharma Mar, S.A., priority 2008, published 2011)
